Assay results taken from patent publication US9738634B2, “Heterocyclic amide compound and herbicide” (SYNGENTA PARTICIPATIONS AG, priority 2013, dated 2017).

Key:
Assay type in all cases: in vivo
barnyard grass [1] = assay: Test Example 1: weedkilling efficacy, preemergent weed treatment in the submerged state; A: barnyard grass; conditions: treatment dosage 252 g/ha
Method in brief: (§1)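 Pre-emergence paddy test: weed seeds sown in submerged alluvial soil (4 cm water), 2.5-leaf rice transplanted, water-diluted emulsion applied to water surface at sowing at stated g/ha. Scored at 3 weeks, greenhouse 25–30 °C.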

bulrush [2] = assay: Test Example 1: weedkilling efficacy, preemergent weed treatment in the submerged state; B: bulrush; conditions: treatment dosage 252 g/ha
Method in brief: as §1

oval-leafed pondweed [3] = assay: Test Example 1: weedkilling efficacy, preemergent weed treatment in the submerged state; C: oval-leafed pondweed; conditions: treatment dosage 252 g/ha
Method in brief: as §1

transplanted rice = assay: Test Example 1: preemergent weed treatment in the submerged state, effect on crop; a: transplanted rice; conditions: treatment dosage 252 g/ha
Method in brief: as §1

barnyard grass [4] = assay: Test Example 2: weedkilling efficacy, growth period weed treatment in the submerged state; A: barnyard grass; conditions: treatment dosage 252 g/ha
Method in brief: (§2)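 Seedlings at 1-2 leaves in 4 cm-deep submerged alluvial soil received emulsion formulations on the water surface, dosed per hectare; effects were judged 3 weeks on.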

bulrush [5] = assay: Test Example 2: weedkilling efficacy, growth period weed treatment in the submerged state; B: bulrush; conditions: treatment dosage 252 g/ha
Method in brief: as §2

oval-leafed pondweed [6] = assay: Test Example 2: weedkilling efficacy, growth period weed treatment in the submerged state; C: oval-leafed pondweed; conditions: treatment dosage 252 g/ha
Method in brief: as §2

crabgrass [7] = assay: Test Example 3: weedkilling efficacy through soil treatment; D: crabgrass; conditions: treatment dosage 315 g/ha
Method in brief: (§3)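 Crop and weed responses were judged three weeks after a uniform surface spray of the water-diluted emulsion at the given g/ha rate. Seeds sat beneath about 1.5 cm of sterilized diluvial soil, and boxes stood in a greenhouse at 25 to 30° C.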

green foxtail [8] = assay: Test Example 3: weedkilling efficacy through soil treatment; E: green foxtail; conditions: treatment dosage 315 g/ha
Method in brief: as §3

wild oat = assay: Test Example 3: weedkilling efficacy through soil treatment; G: wild oat; conditions: treatment dosage 315 g/ha
Method in brief: as §3

black-grass [9] = assay: Test Example 3: weedkilling efficacy through soil treatment; H: black-grass; conditions: treatment dosage 315 g/ha
Method in brief: as §3

Italian ryegrass [10] = assay: Test Example 3: weedkilling efficacy through soil treatment; I: Italian ryegrass; conditions: treatment dosage 315 g/ha
Method in brief: as §3

Indian mallow [11] = assay: Test Example 3: weedkilling efficacy through soil treatment; K: Indian mallow; conditions: treatment dosage 315 g/ha
Method in brief: as §3

redroot pigweed [12] = assay: Test Example 3: weedkilling efficacy through soil treatment; L: redroot pigweed; conditions: treatment dosage 315 g/ha
Method in brief: as §3

fig-leafed goosefoot [13] = assay: Test Example 3: weedkilling efficacy through soil treatment; M: fig-leafed goosefoot; conditions: treatment dosage 315 g/ha
Method in brief: as §3

chickweed [14] = assay: Test Example 3: weedkilling efficacy through soil treatment; N: chickweed; conditions: treatment dosage 315 g/ha
Method in brief: as §3

birds-eye speedwell [15] = assay: Test Example 3: weedkilling efficacy through soil treatment; p: birds-eye speedwell; conditions: treatment dosage 315 g/ha
Method in brief: as §3

directly sown rice [16] = assay: Test Example 3: soil treatment, effect on crop; b: directly sown rice; conditions: treatment dosage 315 g/ha
Method in brief: as §3

corn [17] = assay: Test Example 3: soil treatment, effect on crop; c: corn; conditions: treatment dosage 315 g/ha
Method in brief: as §3

soybean [18] = assay: Test Example 3: soil treatment, effect on crop; d: soybean; conditions: treatment dosage 315 g/ha
Method in brief: as §3

wheat [19] = assay: Test Example 3: soil treatment, effect on crop; e: wheat; conditions: treatment dosage 315 g/ha
Method in brief: as §3

beet [20] = assay: Test Example 3: soil treatment, effect on crop; f: beet; conditions: treatment dosage 315 g/ha
Method in brief: as §3

crabgrass [21] = assay: Test Example 4: weedkilling efficacy by foliar treatment; D: crabgrass; conditions: treatment dosage 315 g/ha
Method in brief: (§4)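 Seeds are spot-sown into sterilized diluvial soil and covered with about 1.5 cm of soil. After 14 days' greenhouse growth at 25 to 30° C, plants are sprayed on stems and leaves with diluted emulsion at the stated g/ha rate, then scored at 3 weeks.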

green foxtail [22] = assay: Test Example 4: weedkilling efficacy by foliar treatment; E: green foxtail; conditions: treatment dosage 315 g/ha
Method in brief: as §4

black-grass [23] = assay: Test Example 4: weedkilling efficacy by foliar treatment; H: black-grass; conditions: treatment dosage 315 g/ha
Method in brief: as §4

Italian ryegrass [24] = assay: Test Example 4: weedkilling efficacy by foliar treatment; I: Italian ryegrass; conditions: treatment dosage 315 g/ha
Method in brief: as §4

Indian mallow [25] = assay: Test Example 4: weedkilling efficacy by foliar treatment; K: Indian mallow; conditions: treatment dosage 315 g/ha
Method in brief: as §4

redroot pigweed [26] = assay: Test Example 4: weedkilling efficacy by foliar treatment; L: redroot pigweed; conditions: treatment dosage 315 g/ha
Method in brief: as §4

fig-leafed goosefoot [27] = assay: Test Example 4: weedkilling efficacy by foliar treatment; M: fig-leafed goosefoot; conditions: treatment dosage 315 g/ha
Method in brief: as §4

chickweed [28] = assay: Test Example 4: weedkilling efficacy by foliar treatment; N: chickweed; conditions: treatment dosage 315 g/ha
Method in brief: as §4

catchweed = assay: Test Example 4: weedkilling efficacy by foliar treatment; O: catchweed; conditions: treatment dosage 315 g/ha
Method in brief: as §4

birds-eye speedwell [29] = assay: Test Example 4: weedkilling efficacy by foliar treatment; p: birds-eye speedwell; conditions: treatment dosage 315 g/ha
Method in brief: as §4

directly sown rice [30] = assay: Test Example 4: foliar treatment, effect on crop; b: directly sown rice; conditions: treatment dosage 315 g/ha
Method in brief: as §4

corn [31] = assay: Test Example 4: foliar treatment, effect on crop; c: corn; conditions: treatment dosage 315 g/ha
Method in brief: as §4

soybean [32] = assay: Test Example 4: foliar treatment, effect on crop; d: soybean; conditions: treatment dosage 315 g/ha
Method in brief: as §4

wheat [33] = assay: Test Example 4: foliar treatment, effect on crop; e: wheat; conditions: treatment dosage 315 g/ha
Method in brief: as §4

beet [34] = assay: Test Example 4: foliar treatment, effect on crop; f: beet; conditions: treatment dosage 315 g/ha
Method in brief: as §4

Row | SMILES | A (barnyard grass) weedkilling efficacy grade (barnyard grass [1]) | B (bulrush) weedkilling efficacy grade (bulrush [2]) | C (oval-leafed pondweed) weedkilling efficacy grade (oval-leafed pondweed [3]) | a (transplanted rice) effect on crop grade (transplanted rice) | A (barnyard grass) weedkilling efficacy grade (barnyard grass [4]) | B (bulrush) weedkilling efficacy grade (bulrush [5]) | C (oval-leafed pondweed) weedkilling efficacy grade (oval-leafed pondweed [6]) | D (crabgrass) weedkilling efficacy grade (crabgrass [7]) | E (green foxtail) weedkilling efficacy grade (green foxtail [8]) | G (wild oat) weedkilling efficacy grade (wild oat) | H (black-grass) weedkilling efficacy grade (black-grass [9]) | I (Italian ryegrass) weedkilling efficacy grade (Italian ryegrass [10]) | K (Indian mallow) weedkilling efficacy grade (Indian mallow [11]) | L (redroot pigweed) weedkilling efficacy grade (redroot pigweed [12]) | M (fig-leafed goosefoot) weedkilling efficacy grade (fig-leafed goosefoot [13]) | N (chickweed) weedkilling efficacy grade (chickweed [14]) | P (birds-eye speedwell) weedkilling efficacy grade (birds-eye speedwell [15]) | b (directly sown rice) effect on crop grade (directly sown rice [16]) | c (corn) effect on crop grade (corn [17]) | d (soybean) effect on crop grade (soybean [18]) | further results
1 | CC1=C(c2ccsc2)C(=O)N(C(C)(C)C(=O)Nc2nc(C)ns2)CO1 [B-1-01] | 5 (weed kill ratio 90% or more, (practically complete withering)) | 5 (weed kill ratio 90% or more, (practically complete withering)) | 5 (weed kill ratio 90% or more, (practically complete withering)) | 4 (weed kill ratio 70% or more, less than 90%) | 5 (weed kill ratio 90% or more, (practically complete withering)) | 5 (weed kill ratio 90% or more, (practically complete withering)) | 5 (weed kill ratio 90% or more, (practically complete withering)) | 5 (weed kill ratio 90% or more, (practically complete withering)) | 5 (weed kill ratio 90% or more, (practically complete withering)) | 5 (weed kill ratio 90% or more, (practically complete withering)) | 5 (weed kill ratio 90% or more, (practically complete withering)) | 5 (weed kill ratio 90% or more, (practically complete withering)) | 3 (weed kill ratio 40% or more, less than 70%) | 4 (weed kill ratio 70% or more, less than 90%) | 5 (weed kill ratio 90% or more, (practically complete withering)) | 3 (weed kill ratio 40% or more, less than 70%) | 5 (weed kill ratio 90% or more, (practically complete withering)) | 5 (weed kill ratio 90% or more, (practically complete withering)) | 0 (weed kill ratio 5% or less (practically no effect)) | 2 (weed kill ratio 20% or more, less than 40%) | e (wheat) effect on crop grade (wheat [19]): 4 (weed kill ratio 70% or more, less than 90%); f (beet) effect on crop grade (beet [20]): 3 (weed kill ratio 40% or more, less than 70%); D (crabgrass) weedkilling efficacy grade (crabgrass [21]): 5 (weed kill ratio 90% or more, (practically complete withering)); E (green foxtail) weedkilling efficacy grade (green foxtail [22]): 5 (weed kill ratio 90% or more, (practically complete withering)); H (black-grass) weedkilling efficacy grade (black-grass [23]): 5 (weed kill ratio 90% or more, (practically complete withering)); I (Italian ryegrass) weedkilling efficacy grade (Italian ryegrass [24]): 5 (weed kill ratio 90% or more, (practically complete withering)); K (Indian mallow) weedkilling efficacy grade (Indian mallow [25]): 4 (weed kill ratio 70% or more, less than 90%); L (redroot pigweed) weedkilling efficacy grade (redroot pigweed [26]): 5 (weed kill ratio 90% or more, (practically complete withering)); M (fig-leafed goosefoot) weedkilling efficacy grade (fig-leafed goosefoot [27]): 5 (weed kill ratio 90% or more, (practically complete withering)); N (chickweed) weedkilling efficacy grade (chickweed [28]): 4 (weed kill ratio 70% or more, less than 90%); O (catchweed) weedkilling efficacy grade (catchweed): 4 (weed kill ratio 70% or more, less than 90%); P (birds-eye speedwell) weedkilling efficacy grade (birds-eye speedwell [29]): 4 (weed kill ratio 70% or more, less than 90%); b (directly sown rice) effect on crop grade (directly sown rice [30]): 5 (weed kill ratio 90% or more, (practically complete withering)); c (corn) effect on crop grade (corn [31]): 4 (weed kill ratio 70% or more, less than 90%); d (soybean) effect on crop grade (soybean [32]): 4 (weed kill ratio 70% or more, less than 90%); e (wheat) effect on crop grade (wheat [33]): 1 (weed kill ratio 5% or more, less than 20%); f (beet) effect on crop grade (beet [34]): 4 (weed kill ratio 70% or more, less than 90%)
2 | CC1=C(c2ccsc2)C(=O)N(C(C)(C)C(=O)Nc2nc(C(C)C)ns2)CO1 [B-1-03] | 5 (weed kill ratio 90% or more, (practically complete withering)) | 5 (weed kill ratio 90% or more, (practically complete withering)) | 5 (weed kill ratio 90% or more, (practically complete withering)) | 3 (weed kill ratio 40% or more, less than 70%) | 5 (weed kill ratio 90% or more, (practically complete withering)) | 5 (weed kill ratio 90% or more, (practically complete withering)) | 5 (weed kill ratio 90% or more, (practically complete withering)) | 5 (weed kill ratio 90% or more, (practically complete withering)) | 5 (weed kill ratio 90% or more, (practically complete withering)) | 5 (weed kill ratio 90% or more, (practically complete withering)) | 5 (weed kill ratio 90% or more, (practically complete withering)) | 5 (weed kill ratio 90% or more, (practically complete withering)) | 4 (weed kill ratio 70% or more, less than 90%) | 4 (weed kill ratio 70% or more, less than 90%) | 5 (weed kill ratio 90% or more, (practically complete withering)) | 3 (weed kill ratio 40% or more, less than 70%) | 5 (weed kill ratio 90% or more, (practically complete withering)) | 5 (weed kill ratio 90% or more, (practically complete withering)) | 0 (weed kill ratio 5% or less (practically no effect)) | 0 (weed kill ratio 5% or less (practically no effect)) | e (wheat) effect on crop grade (wheat [19]): 3 (weed kill ratio 40% or more, less than 70%); f (beet) effect on crop grade (beet [20]): 3 (weed kill ratio 40% or more, less than 70%); D (crabgrass) weedkilling efficacy grade (crabgrass [21]): 4 (weed kill ratio 70% or more, less than 90%); E (green foxtail) weedkilling efficacy grade (green foxtail [22]): 4 (weed kill ratio 70% or more, less than 90%); H (black-grass) weedkilling efficacy grade (black-grass [23]): 5 (weed kill ratio 90% or more, (practically complete withering)); I (Italian ryegrass) weedkilling efficacy grade (Italian ryegrass [24]): 5 (weed kill ratio 90% or more, (practically complete withering)); K (Indian mallow) weedkilling efficacy grade (Indian mallow [25]): 4 (weed kill ratio 70% or more, less than 90%); L (redroot pigweed) weedkilling efficacy grade (redroot pigweed [26]): 4 (weed kill ratio 70% or more, less than 90%); M (fig-leafed goosefoot) weedkilling efficacy grade (fig-leafed goosefoot [27]): 5 (weed kill ratio 90% or more, (practically complete withering)); N (chickweed) weedkilling efficacy grade (chickweed [28]): 3 (weed kill ratio 40% or more, less than 70%); O (catchweed) weedkilling efficacy grade (catchweed): 3 (weed kill ratio 40% or more, less than 70%); P (birds-eye speedwell) weedkilling efficacy grade (birds-eye speedwell [29]): 4 (weed kill ratio 70% or more, less than 90%); b (directly sown rice) effect on crop grade (directly sown rice [30]): 4 (weed kill ratio 70% or more, less than 90%); c (corn) effect on crop grade (corn [31]): 2 (weed kill ratio 20% or more, less than 40%); d (soybean) effect on crop grade (soybean [32]): 4 (weed kill ratio 70% or more, less than 90%); e (wheat) effect on crop grade (wheat [33]): 0 (weed kill ratio 5% or less (practically no effect)); f (beet) effect on crop grade (beet [34]): 3 (weed kill ratio 40% or more, less than 70%)
